Test results: patent publication US7642245B2, “Antibacterial compounds having a (pyrrole carboxamide)-(benzamide)-(imidazole carboxamide) motif” (Oscient Pharmaceuticals Corporation, priority 2002, dated 2010)

What was measured:
[1] = test system: M. catarrhalis (ATCC 25238); assay: MIC, NCCLS broth microdilution; type: cell-based, Moraxella (now Branhamella) catarrhalis; details: H = M. catarrhalis (ATCC 25238)
Outline: (§1)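 Compounds were serially diluted in broth and tested against each strain according to NCCLS guidelines, with MIC taken as the endpoint. C. albicans was assayed per the Manual of Clinical Microbiology.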

[2] = test system: E. coli ATCC 25922; assay: MIC, NCCLS broth microdilution; type: cell-based, Escherichia coli; details: G = E. coli ATCC 25922
Outline: (§2)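 MIC values come from microtiter-plate broth microdilution run to NCCLS standards (M7-A4, M11-A4, M27-T). For C. albicans ATCC 38247, the antifungal procedure of the 1995 Manual of Clinical Microbiology was used instead.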

[3] = test system: S. pneumoniae ATCC 49619; assay: MIC, NCCLS broth microdilution; type: cell-based, Streptococcus pneumoniae; details: E = S. pneumoniae ATCC 49619
Outline: as §2

[4] = test system: C. albicans ATCC 38247; assay: MIC, antifungal assay; type: cell-based, Candida albicans; details: F = C. albicans ATCC 38247
Outline: as §1

[5] = test system: B. cereus ATCC 11778; assay: MIC, NCCLS broth microdilution; type: cell-based, Bacillus cereus; details: D = B. cereus ATCC 11778
Outline: as §1

[6] = test system: E. faecalis ATCC 29212; assay: MIC, NCCLS broth microdilution; type: cell-based, Enterococcus faecalis; details: C = E. faecalis ATCC 29212
Outline: as §2

[7] = test system: S. aureus ATCC 13709; assay: MIC, NCCLS broth microdilution; type: cell-based, Staphylococcus aureus; details: A = S. aureus ATCC 13709 (MSSA)
Outline: as §1

[8] = test system: S. aureus ATCC 27660; assay: MIC, NCCLS broth microdilution; type: cell-based, Staphylococcus aureus; details: B = S. aureus ATCC 27660 (MRSA)
Outline: as §1

| SMILES | Minimum Inhibitory Concentration (MIC) [1] | Minimum Inhibitory Concentration (MIC) [2] | Minimum Inhibitory Concentration (MIC) [3] | Minimum Inhibitory Concentration (MIC) [4] | Minimum Inhibitory Concentration (MIC) [5] | Minimum Inhibitory Concentration (MIC) [6] | Minimum Inhibitory Concentration (MIC) [7] | Minimum Inhibitory Concentration (MIC) [8] |
| --- | --- | --- | --- | --- | --- | --- | --- | --- |
| Cn1cc(NC(=O)c2cc3ccccc3cn2)cc1C(=O)Nc1ccc(C(=O)Nc2cn(C)c(C(=O)NCCN3CCN(CCOC(=O)CN)CC3)n2)cc1 [Compound A-62] | +++ (MIC ≦ 4 μg/mL) | >32 µg/mL | +++ (MIC ≦ 4 μg/mL) | >32 µg/mL | +++ (MIC ≦ 4 μg/mL) | +++ (MIC ≦ 4 μg/mL) | +++ (MIC ≦ 4 μg/mL) | +++ (MIC ≦ 4 μg/mL) |
| Cn1cc(NC(=O)c2sc3ccccc3c2Cl)cc1C(=O)Nc1ccc(C(=O)Nc2cn(C)c(C(=O)NCCN3CCC(O)CC3)n2)cc1 [Compound A-3] | ++ (4 < MIC < 12 μg/mL) | >32 µg/mL | +++ (MIC ≦ 4 μg/mL) | >32 µg/mL | +++ (MIC ≦ 4 μg/mL) | +++ (MIC ≦ 4 μg/mL) | +++ (MIC ≦ 4 μg/mL) | +++ (MIC ≦ 4 μg/mL) |
| CCN(CC)CCNC(=O)c1nc(NC(=O)c2ccc(NC(=O)c3cc(NC(=O)c4cc5ccccc5cn4)cn3C)cc2)cn1C [Compound A-25] | +++ (MIC ≦ 4 μg/mL) | >32 µg/mL | +++ (MIC ≦ 4 μg/mL) | >32 µg/mL | +++ (MIC ≦ 4 μg/mL) | +++ (MIC ≦ 4 μg/mL) | +++ (MIC ≦ 4 μg/mL) | +++ (MIC ≦ 4 μg/mL) |
| Cn1cc(NC(=O)c2cc3ccccc3cn2)cc1C(=O)Nc1ccc(C(=O)Nc2cn(C)c(C(=O)NCCN3CCCC(O)C3)n2)cc1 (racemic) [Compound A-69] | +++ (MIC ≦ 4 μg/mL) | >32 µg/mL | +++ (MIC ≦ 4 μg/mL) | >32 µg/mL | +++ (MIC ≦ 4 μg/mL) | +++ (MIC ≦ 4 μg/mL) | +++ (MIC ≦ 4 μg/mL) | +++ (MIC ≦ 4 μg/mL) |
| Cn1cc(NC(=O)c2cc3ccccc3cn2)cc1C(=O)Nc1ccc(C(=O)Nc2cn(C)c(C(=O)NCCNCCCO)n2)cc1 [Compound A-43] | >32 µg/mL | >32 µg/mL | +++ (MIC ≦ 4 μg/mL) | >32 µg/mL | +++ (MIC ≦ 4 μg/mL) | +++ (MIC ≦ 4 μg/mL) | +++ (MIC ≦ 4 μg/mL) | +++ (MIC ≦ 4 μg/mL) |
| CCCNCCNC(=O)c1nc(NC(=O)c2ccc(NC(=O)c3cc(NC(=O)c4cc5ccccc5cn4)cn3C)cc2)cn1C [Compound A-37] | +++ (MIC ≦ 4 μg/mL) | +++ (MIC ≦ 4 μg/mL) | +++ (MIC ≦ 4 μg/mL) | >32 µg/mL | +++ (MIC ≦ 4 μg/mL) | +++ (MIC ≦ 4 μg/mL) | +++ (MIC ≦ 4 μg/mL) | +++ (MIC ≦ 4 μg/mL) |
| CCOCCCNCCNC(=O)c1nc(NC(=O)c2ccc(NC(=O)c3cc(NC(=O)c4cc5ccccc5cn4)cn3C)cc2)cn1C [Compound A-31] | >32 µg/mL | >32 µg/mL | +++ (MIC ≦ 4 μg/mL) | + (12 ≦ MIC ≦ 32 μg/mL) | ++ (4 < MIC < 12 μg/mL) | ++ (4 < MIC < 12 μg/mL) | +++ (MIC ≦ 4 μg/mL) | +++ (MIC ≦ 4 μg/mL) |
| Cn1cc(NC(=O)c2cc3ccccc3cn2)cc1C(=O)Nc1ccc(C(=O)Nc2cn(C)c(C(=O)NCCN3CCNCC3)n2)cc1 [Compound A-47] | +++ (MIC ≦ 4 μg/mL) | >32 µg/mL | +++ (MIC ≦ 4 μg/mL) | + (12 ≦ MIC ≦ 32 μg/mL) | +++ (MIC ≦ 4 μg/mL) | +++ (MIC ≦ 4 μg/mL) | +++ (MIC ≦ 4 μg/mL) | +++ (MIC ≦ 4 μg/mL) |
| Cn1cc(NC(=O)c2cc3ccccc3cn2)cc1C(=O)Nc1ccc(C(=O)Nc2cn(C)c(C(=O)NCCN3CCN(CCOC(=O)CNC(=O)OC(C)(C)C)CC3)n2)cc1 [Compound A-61] | +++ (MIC ≦ 4 μg/mL) | >32 µg/mL | +++ (MIC ≦ 4 μg/mL) | >32 µg/mL | +++ (MIC ≦ 4 μg/mL) | +++ (MIC ≦ 4 μg/mL) | +++ (MIC ≦ 4 μg/mL) | +++ (MIC ≦ 4 μg/mL) |
| CCOC(=O)C1CCN(CCNC(=O)c2nc(NC(=O)c3ccc(NC(=O)c4cc(NC(=O)c5cc6ccccc6cn5)cn4C)cc3)cn2C)CC1 [Compound A-48] | +++ (MIC ≦ 4 μg/mL) | >32 µg/mL | +++ (MIC ≦ 4 μg/mL) | >32 µg/mL | +++ (MIC ≦ 4 μg/mL) | +++ (MIC ≦ 4 μg/mL) | +++ (MIC ≦ 4 μg/mL) | +++ (MIC ≦ 4 μg/mL) |
| COCCN(C)CCNC(=O)c1nc(NC(=O)c2ccc(NC(=O)c3cc(NC(=O)c4cc5ccccc5cn4)cn3C)cc2)cn1C [Compound A-29] | +++ (MIC ≦ 4 μg/mL) | ++ (4 < MIC < 12 μg/mL) | +++ (MIC ≦ 4 μg/mL) | + (12 ≦ MIC ≦ 32 μg/mL) | +++ (MIC ≦ 4 μg/mL) | +++ (MIC ≦ 4 μg/mL) | +++ (MIC ≦ 4 μg/mL) | +++ (MIC ≦ 4 μg/mL) |
| Cn1cc(NC(=O)c2cc3c(Cl)cccc3cn2)cc1C(=O)Nc1ccc(C(=O)Nc2cn(C)c(C(=O)NCCN3CCC(O)CC3)n2)cc1 [Compound A-9] | + (12 ≦ MIC ≦ 32 μg/mL) | ++ (4 < MIC < 12 μg/mL) | +++ (MIC ≦ 4 μg/mL) | ++ (4 < MIC < 12 μg/mL) | +++ (MIC ≦ 4 μg/mL) | +++ (MIC ≦ 4 μg/mL) | +++ (MIC ≦ 4 μg/mL) | +++ (MIC ≦ 4 μg/mL) |
| CC(O)CN1CCN(CCNC(=O)c2nc(NC(=O)c3ccc(NC(=O)c4cc(NC(=O)c5cc6ccccc6cn5)cn4C)cc3)cn2C)CC1 (centres unmarked) [Compound A-63] | +++ (MIC ≦ 4 μg/mL) | +++ (MIC ≦ 4 μg/mL) | +++ (MIC ≦ 4 μg/mL) | >32 µg/mL | +++ (MIC ≦ 4 μg/mL) | +++ (MIC ≦ 4 μg/mL) | +++ (MIC ≦ 4 μg/mL) | +++ (MIC ≦ 4 μg/mL) |
